In test [1] the test system is Dirofilaria immitis L3/L4. Kind of test: Dirofilaria immitis L3/L4 motility assay (DiroImager, 72 h). The conditions noted are these: Dirofilaria immitis L4.
Test [2] has as its system Dirofilaria immitis microfilariae. Kind of test: Dirofilaria immitis microfilariae immobility assay (DiroImager, 72 h). The conditions noted are these: for % effect (motility), DIROIM MF: Dirofilaria immitis microfilariae. The method, boiled down: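 About 250 freshly purified microfilariae of the Missouri isolate per well in supplemented RPMI 1640, exposed to compound for 72 h. Motility scored by automated whole-plate optical imaging; medium with 1% DMSO as negative control.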

The subject of test [3] is C. elegans. The test is described as follows: C. elegans motor phenotype scoring on solid media (Punc/jerky-unc, coiled, paralyzed), wild-type young adults. Format: in vivo, Caenorhabditis elegans. The settings on record: for any phene (mean % fraction of young adults exhibiting any phenotype: coiled, jerky-Unc or paralyzed) / any phene, mean % fraction of young adults exhibiting any phenotype (coiled, jerky-Unc or paralyzed) / atypical locomotion (number of animals) / coiled (number of animals) / no phene (number of animals) / paralyzed (number of animals): one hour; for any phene (mean % fraction of young adults exhibiting any phenotype: coiled, jerky-Unc or paralyzed) / any phene, mean % fraction of young adults exhibiting any phenotype (coiled, jerky-Unc or paralyzed): mean of three biological replicates; for EC50: Caenorhabditis elegans, read-out: C. elegans - motor disruption EC50; for atypical locomotion (number of animals) / coiled (number of animals) / no phene (number of animals) / paralyzed (number of animals): young adults, 20 animals per trial, single replicate counts.

The subject of test [4] is Pristionchus pacificus. Kind of test: Pristionchus pacificus motor disruption dose-response on solid media, 1 h. The conditions noted are these: for mean % any phene (coiled, jerky-Unc or paralyzed): Pristionchus pacificus young adults, mean of three biological replicates; for EC50: Pristionchus pacificus, 1 h, read-out: P. pacificus motor disruption EC50.
[5] abbreviates: 3.75uM, third c14 line of each analog.
The mark [6] stands for this setting: 15uM, second c14 line of each analog.
Setting [7] is: 60uM, first c14 line of each analog.
Setting [8] is: conc 3.75, observed at one hour.
[9] abbreviates: any motor phenotype after 1 h on solid media, ± 95% CI.

Values joined by “and” are separate entries in the source; they are usually repeats but may differ in a detail not shown here. Equal entries are not always repeated. Where two headings read alike, the source gives them in different places.

For the molecule `Cc1cccc(CN2CCN(c3ccc([N+](=O)[O-])cc3)CC2)c1` [Nemacol-40], the results for the “% effect (motility), DIROIM L4” value in test [1] (2 µM), in test [1] (10 µM) and in test [1] (50 µM) were 0%, 10% and 100%, respectively. The “% effect (motility), DIROIM MF” value was 0% in test [2] (0.016 µM); 0% in test [2] (0.08 µM); 0% in test [2] (0.4 µM); 0% in test [2] (2 µM); 40% in test [2] (10 µM). Further, the EC50 in test [2] (Dirofilaria immitis, 72 h, read-out: Dirofilaria immitis filariae EC50) was 10.7 µM; in test [3] (1 h) it was more than 60 µM; in test [4], more than 60 µM. Moreover, the “any phene (mean % fraction of young adults exhibiting any phenotype: coiled, jerky-Unc or paralyzed)” value in test [3] (setting [5]) is recorded as 5%; in test [3] (setting [6]), 14.1667%; in test [3] (setting [7]), 37.5%. In addition, the “mean % any phene (coiled, jerky-Unc or paralyzed)” value (“mean % any phene” below) in test [4] (setting [8]) was found to be 5%; in test [4] (conc 15, observed at one hour), 4.167%; in test [4] (conc 60, observed at one hour), 11.9444%.
As to `O=C(C1CCCCC1)N1CCN(c2ccc([N+](=O)[O-])cc2)CC1` [Nemacol-16], the “% effect (motility), DIROIM L4” value in test [1] (2 µM) stood at 0%; in test [1] (10 µM), 10%; in test [1] (50 µM) it was 35%. Moreover, the “% effect (motility), DIROIM MF” value in test [2] (0.016 µM) is recorded as 0%; in test [2] (0.08 µM), 0%; in test [2] (0.4 µM), 0%; in test [2] (2 µM) it was 0%; in test [2] (10 µM), 40%. For the same molecule, the “any phene, mean % fraction of young adults exhibiting any phenotype (coiled, jerky-Unc or paralyzed)” value (“any phene, mean % fraction” below) in test [3] (3.75uM) was 0.8333%; in test [3] (15uM), 0.8333%; in test [3] (60uM), 4.167%. The “atypical locomotion (number of animals)” value in test [3] (3.75uM) is 0 and 1; in test [3] (15uM), 0; in test [3] (60uM) it was 4 and 1 and 0. The “coiled (number of animals)” value in test [3] (3.75uM), in test [3] (15uM) and in test [3] (60uM) was 0 each time. The “no phene (number of animals)” value in test [3] (3.75uM) is 20 and 19; in test [3] (15uM) it was 20 and 19; in test [3] (60uM), 16 and 19 and 20. Also, the “paralyzed (number of animals)” value in test [3] (3.75uM) was 0; in test [3] (15uM) it was 0 and 1; in test [3] (60uM) it was 0. Further, the EC50 in test [3] (setting [9]) and in test [4] was more than 60 µM each time. Moreover, the “mean % any phene” value was 0% and 3.333% in test [4] (setting [8]); 8.333% and 5% in test [4] (conc 15, observed at one hour); 36.6667% in test [4] (conc 60, observed at one hour).
Consider `Fc1ccc(N2CCN(CC3CCCCC3)CC2)cc1` [Nemacol-9], for which the entries for the “% effect (motility), DIROIM L4” value in test [1] (2 µM), in test [1] (10 µM) and in test [1] (50 µM) were 5%, 5% and 10%, respectively. Moreover, the “% effect (motility), DIROIM MF” value in test [2] (0.016 µM), in test [2] (0.08 µM), in test [2] (0.4 µM), in test [2] (2 µM) and in test [2] (10 µM) was 0% each time. Further, the “any phene, mean % fraction” value in test [3] (3.75uM) worked out at 21.6667%; in test [3] (15uM) it was 44.1667%; in test [3] (60uM), 95%. Moreover, the “atypical locomotion (number of animals)” value is 0 and 14 and 12 in test [3] (3.75uM); 5 and 3 and 1 and 2 and 16 and 11 in test [3] (15uM); 11 and 13 and 12 and 14 and 3 and 1 in test [3] (60uM). Further, the “coiled (number of animals)” value was 0 in test [3] (3.75uM); 2 and 0 and 4 and 7 in test [3] (15uM); 6 and 5 and 4 and 8 and 13 in test [3] (60uM). Also, the “no phene (number of animals)” value is 20 and 6 and 8 in test [3] (3.75uM); 13 and 17 and 19 and 18 and 0 in test [3] (15uM); 0 and 4 and 2 in test [3] (60uM). Further, the “paralyzed (number of animals)” value is 0 in test [3] (3.75uM); 0 and 2 in test [3] (15uM); 3 and 2 and 0 and 9 and 6 in test [3] (60uM). The EC50 in test [3] (setting [9]) is 14.4 ± 13.3 µM; in test [4], 20 µM. Also, the “mean % any phene” value in test [4] (setting [8]) came to 1.667%; in test [4] (conc 15, observed at one hour), 10%; in test [4] (conc 60, observed at one hour), 100%.
With `FC(F)(F)c1cccc(N2CCN(CC3CC4C=CC3C4)CC2)c1` (stereo not drawn) [Nemacol-47], the “% effect (motility), DIROIM L4” value in test [1] (10 µM) turned out to be 0%; in test [1] (50 µM), 5%. Moreover, the “% effect (motility), DIROIM MF” value in test [2] (0.016 µM), in test [2] (0.08 µM), in test [2] (0.4 µM), in test [2] (2 µM) and in test [2] (10 µM) was 0% each time. The “any phene (mean % fraction of young adults exhibiting any phenotype: coiled, jerky-Unc or paralyzed)” value in test [3] (setting [5]) is 34.1667%; in test [3] (setting [6]) it was 81.6667%; in test [3] (setting [7]), 100%. Also, the EC50 in test [3] (setting [9]) turned out to be 5.7 ± 1.7 µM; in test [4], 2.9 µM. The “mean % any phene” value in test [4] (setting [8]) is on record as 79.1667%; in test [4] (conc 15, observed at one hour), 100%; in test [4] (conc 60, observed at one hour), 100%.
As to `c1ccc(N2CCN(CC3CCCCC3)CC2)cc1` [Nemacol-12], the results for the “% effect (motility), DIROIM L4” value in test [1] (2 µM), in test [1] (10 µM) and in test [1] (50 µM) were 6%, 0% and 5%, respectively. The “% effect (motility), DIROIM MF” value in test [2] (0.016 µM), in test [2] (0.08 µM), in test [2] (0.4 µM), in test [2] (2 µM) and in test [2] (10 µM) was 0% each time. Also, the “any phene, mean % fraction” value was determined as 16.1842% in test [3] (3.75uM), 39.1667% in test [3] (15uM) and 84.1667% in test [3] (60uM). Besides, the “atypical locomotion (number of animals)” value in test [3] (3.75uM) was 0 and 7 and 11; in test [3] (15uM), 4 and 2 and 0 and 1 and 17 and 10; in test [3] (60uM), 11 and 14 and 7 and 10 and 2 and 1. Moreover, the “coiled (number of animals)” value in test [3] (3.75uM) was 0 and 1; in test [3] (15uM) it was 0 and 3 and 8; in test [3] (60uM), 3 and 4 and 5 and 6 and 14 and 19. In addition, the “no phene (number of animals)” value in test [3] (3.75uM) is 20 and 11 and 9; in test [3] (15uM), 16 and 18 and 20 and 19 and 0; in test [3] (60uM), 6 and 2 and 7 and 4 and 0. Moreover, the “paralyzed (number of animals)” value was 0 in test [3] (3.75uM); 0 and 2 in test [3] (15uM); 0 and 1 and 4 in test [3] (60uM). Besides, the values for the EC50 in test [3] (1 h) and in test [4] were 18.8 ± 17.5 µM and 17.3 ± 6.3 µM, respectively. Also, the “mean % any phene” value in test [4] (setting [8]) is listed as 0%; in test [4] (conc 15, observed at one hour), 38.3333%; in test [4] (conc 60, observed at one hour) it was 98.3333%.
Regarding `O=C(C1CCCC1)N1CCN(c2ccc([N+](=O)[O-])cc2)CC1` [Nemacol-17], the “% effect (motility), DIROIM L4” value in test [1] (2 µM) is 0%; in test [1] (10 µM) it was 0%; in test [1] (50 µM), 15%. Besides, the “% effect (motility), DIROIM MF” value in test [2] (0.016 µM), in test [2] (0.08 µM), in test [2] (0.4 µM), in test [2] (2 µM) and in test [2] (10 µM) was 0% in each case. Besides, the figures for the “any phene, mean % fraction” value in test [3] (3.75uM), in test [3] (15uM) and in test [3] (60uM) were 0%, 0% and 9.167%, respectively. Besides, the “atypical locomotion (number of animals)” value in test [3] (3.75uM) is 0; in test [3] (15uM) it was 0; in test [3] (60uM), 0 and 2 and 3 and 6. The “coiled (number of animals)” value in test [3] (3.75uM), in test [3] (15uM) and in test [3] (60uM) was 0 each time. Besides, the “no phene (number of animals)” value in test [3] (3.75uM) is 20; in test [3] (15uM) it was 20; in test [3] (60uM), 20 and 18 and 17 and 14. Also, the “paralyzed (number of animals)” value in test [3] (3.75uM), in test [3] (15uM) and in test [3] (60uM) was 0 each time. The EC50 in test [3] (setting [9]) and in test [4] was more than 60 µM in each case. Also, the “mean % any phene” value in test [4] (setting [8]) came to 2.5%; in test [4] (conc 15, observed at one hour) it was 3.333%; in test [4] (conc 60, observed at one hour), 26.6667%.

Usually EC50 stands for the concentration needed to bring the measured effect to its halfway point.

(Values after paper PMC10066365, “Nemacol is a small molecule inhibitor of C. elegans vesicular acetylcholine transporter with anthelmintic potential” (Nature Communications, 2023).)
